In this data set the test system is moderately differentiated intrahepatic cholangiocarcinoma. Kind of data set: Clinical case: treatment of a patient with metastatic intrahepatic cholangiocarcinoma, drugs chosen by Oncobox rating. Format: in vivo, human. The source says: The patient was diagnosed in October 2015 with the following symptoms: moderate body weight loss, pain in right hypochondrium, loss of appetite and asthenia, with 70% Karnovsky index. […] The tumour was not surgically excised due to advanced stage, several intrahepatic masses and lung metastasis.
At first, total RNA was isolated from tumour sample and used to measure expression levels for 2,163 genes with CustomArray Inc. (USA) equipment using the microarray hybridization method. These 2,163 genes participate in major human signalling pathways associated with cancer, and also act as the molecular targets of anti-cancer medicinal products. Liver samples without pathological characteristics were taken from healthy donors and used as normal tissue controls. Using the Oncobox algorithm, the rating of target drugs was formed according to the BES values obtained (Table 2).

In the case of `CNC(=O)c1cc(Oc2ccc(NC(=O)Nc3ccc(Cl)c(C(F)(F)F)c3)cc2)ccn1` [Sorafenib], the “tumour status on MRI according to RECIST classification” value (Sorafenib from May 2016, MRI October 2016) was “stable disease”. Also, the period till progression result (Sorafenib from May 2016, progressing tumour on MRI January 2017) was “about 6 months”. Moreover, under “after treatment with Sorafenib”, the “symptom change after treatment” value is listed as “pain elimination in right hypochondrium”. Also, under “patient on Sorafenib”, the adverse effects entry was “reddening, edema, pains in palms of the hands and bottoms of the feet”.
